Assay results as given in patent publication US8778966B2, “Quinolinone derivatives as PARP and tank inhibitors” (Janssen Pharmaceutica, NV, priority 2007, dated 2014).
Like-named read-outs stand apart in the source and are kept apart here.

Tests used:
Human PARP-1 enzyme = target: T1, Human PARP-1 enzyme (Homo sapiens, UniProt P09874); assay: In vitro Scintillation Proximity Assay (SPA) for PARP-1 inhibitory activity; type: biochemical; settings: read-out: in vitro SPA assay PARP-1 pIC50 (converted)
T1 construct: purchased Trevigen
How it was run: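 SPA assay: nicked-DNA-activated PARP-1 (0.1–0.2 μg/ml) ADP-ribosylates biotinylated histones (2 μg/ml) using [3H]-NAD+, 20 min at RT in Tris pH 8/DTT/MgCl2, stopped with 2 mM NAD+. Blank-subtracted cpm expressed as % control; IC50 by linear interpolation, reported as pIC50 (10−5 to 3×10−9 M tested).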

PC3 cells = assay: EB1 Comet (microtubule disruption) assay; type: cell-based, human; settings: Homo sapiens, read-out: EB1 pLAC (converted)
How it was run: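 Readout is loss of Eb1 plus-end foci, scored by immunofluorescence microscopy, in PC3 cells after 1 h compound treatment at 37 °C with 0.6% final DMSO. LAC is defined as the lowest concentration leaving at least 50% of cells without Eb1 foci.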

T1 sequence (P09874 whole entry): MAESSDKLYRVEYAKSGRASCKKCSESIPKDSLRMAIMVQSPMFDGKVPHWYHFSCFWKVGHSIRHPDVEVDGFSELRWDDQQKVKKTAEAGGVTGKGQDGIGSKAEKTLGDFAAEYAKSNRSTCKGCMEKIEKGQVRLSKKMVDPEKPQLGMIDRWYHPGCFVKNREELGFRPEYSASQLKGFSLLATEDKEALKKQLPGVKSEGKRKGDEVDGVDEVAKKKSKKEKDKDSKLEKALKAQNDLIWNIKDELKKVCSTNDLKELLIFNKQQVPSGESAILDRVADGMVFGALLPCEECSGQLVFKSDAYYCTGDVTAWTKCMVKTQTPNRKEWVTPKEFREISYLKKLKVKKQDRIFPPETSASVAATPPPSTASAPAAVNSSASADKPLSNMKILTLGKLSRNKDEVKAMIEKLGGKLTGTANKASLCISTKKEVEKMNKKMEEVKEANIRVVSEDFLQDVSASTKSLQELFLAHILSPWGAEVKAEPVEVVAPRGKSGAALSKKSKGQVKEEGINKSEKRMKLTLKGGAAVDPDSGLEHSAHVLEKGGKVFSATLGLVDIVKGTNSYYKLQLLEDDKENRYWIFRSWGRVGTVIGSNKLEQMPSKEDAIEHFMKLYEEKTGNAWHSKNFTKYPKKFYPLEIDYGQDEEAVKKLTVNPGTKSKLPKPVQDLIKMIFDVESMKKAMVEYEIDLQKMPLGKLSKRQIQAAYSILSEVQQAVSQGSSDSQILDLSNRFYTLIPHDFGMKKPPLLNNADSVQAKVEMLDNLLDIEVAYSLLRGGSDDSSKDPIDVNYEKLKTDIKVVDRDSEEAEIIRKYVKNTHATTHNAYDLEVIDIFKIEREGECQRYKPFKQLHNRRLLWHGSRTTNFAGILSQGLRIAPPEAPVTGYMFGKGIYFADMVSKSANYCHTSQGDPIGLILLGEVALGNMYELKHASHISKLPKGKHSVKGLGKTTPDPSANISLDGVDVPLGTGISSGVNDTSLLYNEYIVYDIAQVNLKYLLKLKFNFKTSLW

Row | Compound | IC50 (Human PARP-1 enzyme) [nM] | minimal effective concentration (PC3 cells; PC-3, 1 h, 1 hour treatment) [µM] | minimal effective concentration (PC3 cells; PC-3, 1 hour treatment) [µM]
1 | CCc1cc2ccc(C(C)(C#N)Cc3cccc(C#C[Si](C)(C)C)c3)cc2[nH]c1=O (stereo not shown) [Compound 1] | 398 | 1 | 
2 | CCc1cc2ccc(C(C)(C#N)Cc3cccc(CN(C)C)c3)cc2[nH]c1=O (stereo not shown) [Compound 7] | 1000 | 3.16 | 
3 | CC(C#N)(Cc1ccccc1)c1ccc2cc(CO)c(=O)[nH]c2c1 (stereo not shown) [Compound 40] | 2510 |  | 
4 | CCc1cc2ccc(C(C)(C#N)Cc3ccccc3)cc2[nH]c1=O (stereo not shown) [Compound 44] | 316 |  | 
5 | CCOP(=O)(OCC)c1cccc(CC(C)(C#N)c2ccc3cc(CC)c(=O)[nH]c3c2)c1 (stereo not shown) [Compound 50] | 2510 |  | 0.316
6 | CCc1cc2ccc(C(C)(C#N)Cc3cccc(CN4CCOCC4)c3)cc2[nH]c1=O (stereo not shown) [Compound 58] | 501 | 3.16 | 
7 | CCc1cc2ccc(C(C)(C#N)Cc3cccc(CNC)c3)cc2[nH]c1=O (stereo not shown) [Compound 59] | 631 | 10 | 
8 | CCc1cc2ccc(C(C)(C#N)Cc3cccc(C(=O)NCCOC)c3)cc2[nH]c1=O (stereo not shown) [Compound 62] | 501 |  | 
9 | CCc1cc2ccc(C(C)(C#N)Cc3cccc(N4CCNCC4)c3)cc2[nH]c1=O (stereo not shown) [Compound 64] | 794 |  | 
10 | CCc1cc2ccc(C(C)(C#N)Cc3cccc(OCCCN4CCOCC4)c3)cc2[nH]c1=O (stereo not shown) [Compound 68] | 1000 |  | 
11 | Cc1cc2ccc(C(C)(C#N)Cc3cc4ccccc4s3)cc2[nH]c1=O (stereo not shown) [Compound 71] | 3160 | 1 | 
12 | Cc1cc2ccc(C(C)(C#N)Cc3ccc(Cl)s3)cc2[nH]c1=O (stereo not shown) [Compound 72] | 1260 | 0.316 | 
13 | Cc1cc2ccc(C(C)(C#N)Cc3ccc(C(F)(F)F)o3)cc2[nH]c1=O (stereo not shown) [Compound 73] | 2000 | 1 | 
14 | Cc1cc2ccc(C(C)(C#N)Cc3cccc4cccnc34)cc2[nH]c1=O (stereo not shown) [Compound 74] | 1000 | 3.16 | 
15 | Cc1cc2ccc(C(C)(C#N)Cc3nc4ccccc4s3)cc2[nH]c1=O (stereo not shown) [Compound 75] | 1260 | 0.316 | 
16 | Cc1cc2ccc(C(C)(C#N)Cc3ccccc3)cc2[nH]c1=O (stereo not shown) [Compound 76] | 1580 | 1 | 
17 | CCc1cc2ccc(C(C)(C#N)Cc3ccc(F)c(C)c3)cc2[nH]c1=O (stereo not shown) [Compound 79] | 794 | 1 | 
18 | CCc1cc2ccc(C(C)(C#N)Cc3nncn3C)cc2[nH]c1=O (stereo not shown) [Compound 93] | 126 |  | 
19 | CCc1cc2ccc(C(C)(C#N)Cc3nn(C)c4ccccc34)cc2[nH]c1=O (stereo not shown) [Compound 95] | 251 |  | 
20 | CCc1cc2ccc(C(C)(C#N)Cc3cccnc3)cc2[nH]c1=O (stereo not shown) [Compound 97] | 39.8 |  | 
21 | CCc1cc2ccc(C(C)(C#N)CCOc3cc(Cl)c(Cl)cc3Cl)cc2[nH]c1=O (stereo not shown) [Compound 277] | 398 |  | 

Second part, led by results:

Row | IC50 (Human PARP-1 enzyme) [nM] | Compound | minimal effective concentration (PC3 cells; PC-3, 1 h, 1 hour treatment) [µM] | minimal effective concentration (PC3 cells; PC-3, 1 hour treatment) [µM]
22 | 316 | CCc1cc2ccc([C@](C)(C#N)Cc3ccccc3)cc2[nH]c1=O (single isomer, unassigned) [Compound 45] | > 10 | 
23 | 316 | CCc1cc2ccc([C@@](C)(C#N)Cc3ccccc3)cc2[nH]c1=O (single isomer, unassigned) [Compound 46] | 0.1 | 
24 | 398 | CCc1cc2ccc(C(C)(C#N)CC3COc4ccccc4O3)cc2[nH]c1=O (single isomer, unassigned) [Compound 47] |  | 
25 | 200 | CCc1cc2ccc([C@](C)(C#N)Cc3nc(OC)cc(OC)n3)cc2[nH]c1=O (single isomer, unassigned) [Compound 52] | 3.16 | 
26 | 50.1 | CCc1cc2ccc([C@@](C)(C#N)Cc3nc(OC)cc(OC)n3)cc2[nH]c1=O (single isomer, unassigned) [Compound 53] | 0.0316 | 
27 | 501 | CCc1cc2ccc(C(C)(C#N)Cc3cccc(COC)c3)cc2[nH]c1=O (stereo not shown) [Compound 8] | 0.316 | 
28 | 200 | CCc1cc2ccc(C(C)(C#N)Cc3cccc(CO)c3)cc2[nH]c1=O (stereo not shown) [Compound 9] | 1 | 
29 | 1000 | CCc1cc2ccc(C(C)(C#N)Cc3c(F)ccc(C)c3F)cc2[nH]c1=O (stereo not shown) [Compound 41] | 0.316 | 
30 | 200 | CCc1cc2ccc(C(C)(C#N)Cc3nnsc3Cl)cc2[nH]c1=O (stereo not shown) [Compound 42] | 0.1 | 
31 | 200 | CCc1cc2ccc(C(C)(C#N)Cc3nc(OC)cc(OC)n3)cc2[nH]c1=O (stereo not shown) [Compound 43] |  | 
32 | 316 | CCc1cc2ccc(C(C)(C#N)Cc3cccc(Br)c3)cc2[nH]c1=O (stereo not shown) [Compound 49] | 0.316 | 
33 | 126 | CCc1cc2ccc(C(C)(C#N)Cc3cccc(C#N)c3)cc2[nH]c1=O (stereo not shown) [Compound 51] | 0.316 | 
34 | 158 | CCc1cc2ccc(C(C)(C#N)CCOc3ccc([N+](=O)[O-])cc3)cc2[nH]c1=O (stereo not shown) [Compound 54] | 0.316 | 
35 | 3980 | CCc1cc2ccc(C(C)(C#N)Cc3cccc(CN4CCN(C)CC4)c3)cc2[nH]c1=O (stereo not shown) [Compound 57] |  | 
36 | 794 | CCc1cc2ccc(C(C)(C#N)Cc3cccc(CNCCOC)c3)cc2[nH]c1=O (stereo not shown) [Compound 60] |  | 
37 | 1000 | CCc1cc2ccc(C(C)(C#N)Cc3cccc(CNCCN4CCOCC4)c3)cc2[nH]c1=O (stereo not shown) [Compound 61] |  | 
38 | 1000 | CCc1cc2ccc(C(C)(C#N)Cc3cccc(C(=O)N(C)C)c3)cc2[nH]c1=O (stereo not shown) [Compound 63] | 3.16 | 
39 | 1260 | CCc1cc2ccc(C(C)(C#N)Cc3cccc(N4CCCCC4)c3)cc2[nH]c1=O (stereo not shown) [Compound 65] |  | 
40 | 1260 | CCc1cc2ccc(C(C)(C#N)Cc3cccc(N4CCN(C)CC4)c3)cc2[nH]c1=O (stereo not shown) [Compound 66] |  | 
41 | 1000 | CCc1cc2ccc(C(C)(C#N)Cc3cccc(OCC4CC4)c3)cc2[nH]c1=O (stereo not shown) [Compound 67] | 0.316 | 
42 | 794 | CCc1cc2ccc(C(C)(C#N)Cc3cccc(OCCCN4CCN(C)CC4)c3)cc2[nH]c1=O (stereo not shown) [Compound 69] |  | 
43 | 3980 | Cc1cc2ccc(C(C)(C#N)Cc3noc(-c4cccc(C(F)(F)F)c4)n3)cc2[nH]c1=O (stereo not shown) [Compound 70] | 3.16 | 
44 | 398 | CCc1cc2ccc(C(C)(C#N)Cc3ccc(OC)c(C#N)c3)cc2[nH]c1=O (stereo not shown) [Compound 77] | 1 | 
45 | 1260 | CCc1cc2ccc(C(C)(C#N)Cc3cc(C)ccc3C)cc2[nH]c1=O (stereo not shown) [Compound 78] | 0.1 | 
46 | 1580 | CCc1cc2ccc(C(C)(C#N)Cc3c(C)c(C)cc(C)c3C)cc2[nH]c1=O (stereo not shown) [Compound 88] |  | 
47 | 1580 | CCc1cc2ccc(C(C)(C#N)Cc3c(C)c(C)c(C)c(C)c3C)cc2[nH]c1=O (stereo not shown) [Compound 89] |  | 
48 | 126 | CCc1cc2ccc(C(C)(C#N)Cc3cccc4nnn(C)c34)cc2[nH]c1=O (stereo not shown) [Compound 94] |  | 
49 | 126 | CCc1cc2ccc(C(C)(C#N)Cc3cn4ccccc4n3)cc2[nH]c1=O (stereo not shown) [Compound 96] |  | 
50 | 158 | CCc1cc2ccc(C(C)(C#N)Cc3ccncc3)cc2[nH]c1=O (stereo not shown) [Compound 98] |  | 
51 | 79.4 | CCc1cc2ccc(C(C)(C#N)CCOc3ccccc3C#N)cc2[nH]c1=O (stereo not shown) [Compound 276] |  | 
